Consider one molecule from publication PMC9292294 (Chemmedchem, 2021).

One test addresses FXIIa (Homo sapiens, UniProt P00748). Put plainly: Medium‐throughput screening. The class given is biochemical. As to conditions: read-out: Inhibition @100 nM [in MTS] FXIIa.
Another test deals with human Factor Xa (Homo sapiens, UniProt P00742). Briefly: FXa inhibition assay, fluorogenic substrate Boc‐Ile‐Glu‐Gly‐Arg‐AMC. Type of test: biochemical.
In the next test the target is human β‐FXIIa (Homo sapiens, UniProt P00748). Type of test: biochemical.
For a further test, the target named is human plasma β‐FXIIa (Homo sapiens, UniProt P00748). Put plainly: Mass‐shift analysis of the covalent FXIIa‐inhibitor complex by SEC/ESI‐MS. As to conditions: 15 min incubation, enzyme:inhibitor 1 : 20. Type of test: binding. For orientation: SEC sorts molecules by how far they enter the pores of the column.
Another test concerns the target porcine trypsin (Sus scrofa, UniProt P00761). Put plainly: Trypsin inhibition assay, fluorogenic substrate Z‐Gly‐Gly‐Arg‐AMC. Type of test: biochemical.
Test [1] has as its target human α‐thrombin (factor IIa) (Homo sapiens, UniProt P00734). The class given is biochemical.
A further test concerns the target thrombin (FIIa) (Homo sapiens, UniProt P00734). Put plainly: Medium‐throughput screening. Type of test: biochemical. As to conditions: read-out: Inhibition @100 nM [in MTS] FIIa.

Sequence of human β‐FXIIa (P00748 373-615 limits assumed, other chains not shown): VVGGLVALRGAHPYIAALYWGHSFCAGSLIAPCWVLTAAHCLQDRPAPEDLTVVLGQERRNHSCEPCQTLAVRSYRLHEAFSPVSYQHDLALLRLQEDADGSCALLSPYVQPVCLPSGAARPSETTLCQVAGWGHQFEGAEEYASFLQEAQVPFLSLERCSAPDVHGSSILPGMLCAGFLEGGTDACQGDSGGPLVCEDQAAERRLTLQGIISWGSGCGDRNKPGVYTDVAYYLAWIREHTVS
Sequence of FXIIa (P00748 373-615 limits assumed, other chains not shown): as above
Sequence of human plasma β‐FXIIa (P00748 373-615 limits assumed, other chains not shown): as above
Sequence of human Factor Xa (P00742 235-488 limits assumed): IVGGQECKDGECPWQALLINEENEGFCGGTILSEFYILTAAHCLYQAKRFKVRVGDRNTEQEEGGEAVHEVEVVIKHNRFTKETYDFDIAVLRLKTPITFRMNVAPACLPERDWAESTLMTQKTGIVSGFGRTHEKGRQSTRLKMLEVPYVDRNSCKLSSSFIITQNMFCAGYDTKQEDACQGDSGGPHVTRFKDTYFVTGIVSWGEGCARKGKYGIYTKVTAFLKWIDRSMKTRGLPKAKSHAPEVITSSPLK
Sequence of human Factor Xa (P00742 41-179 limits assumed): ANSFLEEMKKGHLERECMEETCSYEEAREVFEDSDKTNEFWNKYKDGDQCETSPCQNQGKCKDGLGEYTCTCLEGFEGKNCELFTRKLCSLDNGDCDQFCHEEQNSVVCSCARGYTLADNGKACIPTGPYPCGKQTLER
Sequence of porcine trypsin (P00761 9-231): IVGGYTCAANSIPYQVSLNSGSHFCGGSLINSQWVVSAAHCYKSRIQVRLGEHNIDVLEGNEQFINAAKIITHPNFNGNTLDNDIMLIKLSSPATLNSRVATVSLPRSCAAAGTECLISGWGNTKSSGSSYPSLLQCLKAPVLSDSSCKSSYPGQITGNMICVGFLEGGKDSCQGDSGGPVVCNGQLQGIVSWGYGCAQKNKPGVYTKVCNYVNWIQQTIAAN

In general, inhibition refers to the change of the read-out against control, counted positive when it falls. As usually defined, the IC50 is the concentration at which inhibition is half-maximal. With `Nc1nc(-c2ccc3ccccc3n2)nn1C(=O)[C@H]1CCCc2ccccc21` [33 g, (S)‐(5‐Amino‐3‐(quinolin‐2‐yl)‐1H‐1,2,4‐triazol‐1‐yl)(1,2,3,4‐tetrahydronaphthalen‐1‐yl)‐methanone], the results for the inhibition at 0.1 µM at FXIIa and on thrombin (FIIa) were 94% and 5%, respectively. The IC50 on human Factor Xa was more than 5 µM; on human β‐FXIIa it was 0.033 ± 0.001 µM; at porcine trypsin it was more than 5 µM; in test [1], 1.01 ± 0.155 µM. Moreover, the “mass shift of FXIIa (acyl moiety adduct)” value on human plasma β‐FXIIa is given as 158.2 Da.
